Experimental data published in patent US20060089263A1, “2-Propenal and related enal compounds for controlling plant pests and weeds in soil” (priority 2004, published 2006).

Key:
Format in all cases: in vivo
[1] = system: microbivorous nematodes; experiment: Greenhouse nematicidal experiment, microbivorous nematodes in soil and roots; details: for response patterns of nematodes to applications (microbivorous): compared with 2-propenal
Text: (§1) The nematicidal properties of 2-propenal (CH2═CH—CHO; acrolein), 2-butenal (CH3—CH═CH—CHO; crotonaldehyde), and trans 2-pentenal (CH3—CH2—CH═CH—CHO) were studied in greenhouse experiments with soil severely infected with the reniform nematode (Rotylenchulus reniformis). The soil was collected from a cotton field and was a sandy loam with pH 6.2, organic matter content <1.0% and cation exchange capacity <10 meq/100 gms soil. The soil was mixed 50:50 by volume, with washed fine siliceous river sand and the mixture, here-from referred to as soil. The moist soil (50% field capacity) was apportioned in 1 Kg quantities contained in 4L polyethylene bags. The compounds were applied to the soil in the bags, and after thorough mixing the treated soil was transferred to 1 L capacity, 4-inch-diam. plastic (PVC) pots which were then covered with a polyethylene bag (1 mil) held tightly to the outside wall of the pot with a rubber band. The covered pots were placed on a greenhouse table and after 10 days the bags were removed and soil samples for nematode analyses were collected from each pot. The pots were planted with “Young” soybean (5 seed/pot.) Soybean plants were grown for 8 weeks when they were removed, soil samples taken for nematode analysis (salad bowl incubation technique), and data were collected on shoot height, and fresh weights of shoots and roots. The relative health of the root systems was determined using a subjective scale. […] Values between 1 and 5 represented intermediate degrees of damage. The roots were incubated to assess nematode populations in them.
(§2) Emulsifiable concentrates (EC's) were prepared for all three compounds containing 10% (w/w) emulsogen. The EC's were used to make aqueous emulsions containing 2.5% active ingredient; these emulsions were then used to deliver the compounds to soil. Each compound was delivered using the following rates: 0, 25, 50, 75, 100, 125, 150, 175, 200, 225, 250, 275, 300 mgs/kg soil. In every experiment there were 6 replications (pots) per treatment arranged in a randomized complete block design.
(§3) All data were analyzed according to standard procedures for analysis of variance. Fisher's Least Significant Differences (FLSD) were calculated when F values were significant and are included in the graphs. Curvilineal analyses were conducted according to standard procedures with the TableCurve 2D program.

[2] = system: reniform nematode (Rotylenchulus reniformis); experiment: Greenhouse nematicidal experiment, soil infested with reniform nematode; details: for response patterns of nematodes to applications (reniform): compared with 2-propenal
Text: as §1, §2, §3

[3] = system: "Young" soybean; experiment: Growth response of soybean plants in treated soil (greenhouse)
Text: as §1, §2, §3

[4] = system: tomato plant; experiment: Tomato plant growth study, vigor rating; set-up: key to TOMATO VIGOR 1-5SCALE: 1 = very little vigor, 5 = very vigorous
Text: This example together with the data in Table 1 includes results of a study conducted to test the affects of acrolein on tomato plant growth. The first column in Table 1 includes, from left to right the treatment number, the treatment name, the rate of application, and the unit for that rate. The treatment name includes two separate treatment ingredients for each treatment number. The top name of each treatment name lists the test additive, and the bottom listing of the treatment name lists any additional herbicide applied in that particular treatment number. For example, in treatment number 5, methyl bromide was applied with a sandea herbicide. The rate and the rate unit headings, for this study, lists the amount of application of the treatment ingredients in pounds of active ingredients per acre (lb ai/a). Column 2 of Table 1 lists a vigor rating for each tomato plant on a scale of 1 to 5, wherein a 1 rating indicates a tomato plant with very little vigor, and a 5 rating indicates a very vigorous tomato plant. Column 2 lists vigor scale ratings for each treatment number taken on Aug. 17, 2005, and column 3 lists a vigor rating for each treatment taken on Aug. 25, 2005.

[5] = system: yellow nutsedge (Cyperus esculentus); experiment: Greenhouse herbicidal experiment, post-emergence; details: applied post-emergence
Description: Herbicidal properties of the compounds were studied as described for experiments on nematicidal activities. The soil was from a cotton field with a silt loam soil from a cotton field with similar properties as the one used for the nematode experiments. It was infested with a variety of weeds and was artificially seeded with 5 yellow nutsedge tubercles/pot. Nutsedge plants and other weeds were grown for a month, and the pots were then treated with 2-propenal and covered with polyethylene bags for 10 days, when the bags were removed and weed counts taken at two weeks and one month after treatment. Rates used in these experiments were: 0, 100, 200, 300, 400, 500, 600, 700, and 800 mgs/kg soil.
as §3

[6] = 0-300 mgs/kg soil, pre-plant samples
[7] = 50 mgs/kg soil equivalent to 100 lbs/A, pre-plant samples

Compound: 2-butenal
- response patterns of nematodes to applications (microbivorous) [1]: very similar to those described for 2-propenal
- response patterns of nematodes to applications (reniform) [2]: very similar to those described for 2-propenal

Compound: 2-propenal
- shoot height ([3]; dosages above 50 mgs): gradual decline
- shoot weights ([3]; dosages above 50 mgs): gradual decline
- root weights ([3]; dosages higher than 175 mgs): declined
- shoot height ([3]; dosages ≦50 mgs): Sharp increases
- shoot weights ([3]; dosages ≦50 mgs): Sharp increases
- root weights ([3]; rates up to 175 mgs): increased gradually
- root condition ([3]; subjective scale 1 to 5, rates 25-300 mgs/kg soil): improved by all but the highest dose
- populations of microbivorous nematodes in pre-plant samples [1, 6]: reduced exponentially
- microbivorous populations at the end of the experiment ([1]; 75 mg rate): stimulated
- reduction in populations of microbivorous nematodes [1, 7]: > 90%
- microbivorous populations at the end of the experiment ([1]; applications of ≦100 mgs/kg soil, soil and root samples): recovered
- populations of reniform nematodes in pre-plant samples [2, 6]: reduced exponentially
- reduction in populations of reniform nematodes [2, 7]: > 90%
- TOMATO VIGOR 1-5SCALE ([4]; 17/Aug/05, DRIP 200 lb ai/a, no herbicide): 3.000
- TOMATO VIGOR 1-5SCALE ([4]; 17/Aug/05, DRIP 200 lb ai/a, with SANDEA 0.25 lb ai/a): 3.000
- TOMATO VIGOR 1-5SCALE ([4]; 17/Aug/05, DRIP 200 lb ai/a, with V-10142 0.25 lb ai/a): 3.000
- TOMATO VIGOR 1-5SCALE ([4]; 17/Aug/05, DRIP 400 lb ai/a, no herbicide): 3.000
- TOMATO VIGOR 1-5SCALE ([4]; 17/Aug/05, DRIP 400 lb ai/a, with SANDEA 0.25 lb ai/a): 2.750
- TOMATO VIGOR 1-5SCALE ([4]; 17/Aug/05, DRIP 400 lb ai/a, with V-10142 0.25 lb ai/a): 3.000
- TOMATO VIGOR 1-5SCALE ([4]; 17/Aug/05, DRIP 600 lb ai/a, no herbicide): 1.250
- TOMATO VIGOR 1-5SCALE ([4]; 17/Aug/05, DRIP 600 lb ai/a, with SANDEA 0.25 lb ai/a): 1.500
- TOMATO VIGOR 1-5SCALE ([4]; 17/Aug/05, DRIP 600 lb ai/a, with V-10142 0.25 lb ai/a): 2.250
- TOMATO VIGOR 1-5SCALE ([4]; 17/Aug/05, INJECT 200 lb ai/a, no herbicide, listed as ACROLEIN): 4.250
- TOMATO VIGOR 1-5SCALE ([4]; 17/Aug/05, INJECT 200 lb ai/a, no herbicide, listed as acrolein): 4.25
- TOMATO VIGOR 1-5SCALE ([4]; 17/Aug/05, INJECT 200 lb ai/a, with SANDEA 0.25 lb ai/a): 4.000
- TOMATO VIGOR 1-5SCALE ([4]; 17/Aug/05, INJECT 200 lb ai/a, with V-10142 0.25 lb ai/a): 4.000
- TOMATO VIGOR 1-5SCALE ([4]; 17/Aug/05, INJECT 400 lb ai/a, no herbicide, listed as ACROLEIN): 4.000
- TOMATO VIGOR 1-5SCALE ([4]; 17/Aug/05, INJECT 400 lb ai/a, no herbicide, listed as acrolein): 4.0
- TOMATO VIGOR 1-5SCALE ([4]; 17/Aug/05, INJECT 400 lb ai/a, with SANDEA 0.25 lb ai/a): 3.000
- TOMATO VIGOR 1-5SCALE ([4]; 17/Aug/05, INJECT 400 lb ai/a, with V-10142 0.25 lb ai/a): 4.000
- TOMATO VIGOR 1-5SCALE ([4]; 17/Aug/05, INJECT 600 lb ai/a, no herbicide): 3.250
- TOMATO VIGOR 1-5SCALE ([4]; 17/Aug/05, INJECT 600 lb ai/a, with SANDEA 0.25 lb ai/a): 3.250
- TOMATO VIGOR 1-5SCALE ([4]; 17/Aug/05, INJECT 600 lb ai/a, with V-10142 0.25 lb ai/a): 3.250
- TOMATO VIGOR 1-5SCALE ([4]; 25/Aug/05, DRIP 200 lb ai/a, no herbicide): 4.000
- TOMATO VIGOR 1-5SCALE ([4]; 25/Aug/05, DRIP 200 lb ai/a, with SANDEA 0.25 lb ai/a): 3.750
- TOMATO VIGOR 1-5SCALE ([4]; 25/Aug/05, DRIP 200 lb ai/a, with V-10142 0.25 lb ai/a): 3.850
- TOMATO VIGOR 1-5SCALE ([4]; 25/Aug/05, DRIP 400 lb ai/a, no herbicide): 3.250
- TOMATO VIGOR 1-5SCALE ([4]; 25/Aug/05, DRIP 400 lb ai/a, with SANDEA 0.25 lb ai/a): 3.500
- TOMATO VIGOR 1-5SCALE ([4]; 25/Aug/05, DRIP 400 lb ai/a, with V-10142 0.25 lb ai/a): 3.250
- TOMATO VIGOR 1-5SCALE ([4]; 25/Aug/05, DRIP 600 lb ai/a, no herbicide): 2.500
- TOMATO VIGOR 1-5SCALE ([4]; 25/Aug/05, DRIP 600 lb ai/a, with SANDEA 0.25 lb ai/a): 2.500
- TOMATO VIGOR 1-5SCALE ([4]; 25/Aug/05, DRIP 600 lb ai/a, with V-10142 0.25 lb ai/a): 2.900
- TOMATO VIGOR 1-5SCALE ([4]; 25/Aug/05, INJECT 200 lb ai/a, no herbicide, listed as ACROLEIN): 4.750
- TOMATO VIGOR 1-5SCALE ([4]; 25/Aug/05, INJECT 200 lb ai/a, no herbicide, listed as acrolein): 4.75
- TOMATO VIGOR 1-5SCALE ([4]; 25/Aug/05, INJECT 200 lb ai/a, with SANDEA 0.25 lb ai/a): 4.750
- TOMATO VIGOR 1-5SCALE ([4]; 25/Aug/05, INJECT 200 lb ai/a, with V-10142 0.25 lb ai/a): 4.750
- TOMATO VIGOR 1-5SCALE ([4]; 25/Aug/05, INJECT 400 lb ai/a, no herbicide, listed as ACROLEIN): 5.000
- TOMATO VIGOR 1-5SCALE ([4]; 25/Aug/05, INJECT 400 lb ai/a, no herbicide, listed as acrolein): 5.0
- TOMATO VIGOR 1-5SCALE ([4]; 25/Aug/05, INJECT 400 lb ai/a, with SANDEA 0.25 lb ai/a): 4.250
- TOMATO VIGOR 1-5SCALE ([4]; 25/Aug/05, INJECT 400 lb ai/a, with V-10142 0.25 lb ai/a): 4.650
- TOMATO VIGOR 1-5SCALE ([4]; 25/Aug/05, INJECT 600 lb ai/a, no herbicide): 4.250
- TOMATO VIGOR 1-5SCALE ([4]; 25/Aug/05, INJECT 600 lb ai/a, with SANDEA 0.25 lb ai/a): 4.000
- TOMATO VIGOR 1-5SCALE ([4]; 25/Aug/05, INJECT 600 lb ai/a, with V-10142 0.25 lb ai/a): 3.750
- doses resulting in practical elimination of the weed [5]: ≥ 200 mgs/kgs soil

Compound: CC/C=C/C=O [2-pentenal, trans-2-pentenal]
- response patterns of nematodes to applications (microbivorous) [1]: very similar to those described for 2-propenal
- response patterns of nematodes to applications (reniform) [2]: very similar to those described for 2-propenal

Compound: CBr [METHYL BROMIDE 1, methyl bromide, reference compound]
- TOMATO VIGOR 1-5SCALE ([4]; 17/Aug/05, 350 lb ai/a, no herbicide): 2.500
- TOMATO VIGOR 1-5SCALE ([4]; 17/Aug/05, 350 lb ai/a, no herbicide, listed as METHYL BROMIDE 2): 2.250
- TOMATO VIGOR 1-5SCALE ([4]; 17/Aug/05, 350 lb ai/a, with SANDEA 0.25 lb ai/a): 2.250
- TOMATO VIGOR 1-5SCALE ([4]; 17/Aug/05, 350 lb ai/a, with SANDEA 0.25 lb ai/a, listed as METHYL BROMIDE 2): 2.500
- TOMATO VIGOR 1-5SCALE ([4]; 17/Aug/05, 350 lb ai/a, with V-10142 0.25 lb ai/a): 2.000
- TOMATO VIGOR 1-5SCALE ([4]; 17/Aug/05, 350 lb ai/a, with V-10142 0.25 lb ai/a, listed as METHYL BROMIDE 2): 2.500
- TOMATO VIGOR 1-5SCALE ([4]; 25/Aug/05, 350 lb ai/a, no herbicide): 2.500
- TOMATO VIGOR 1-5SCALE ([4]; 25/Aug/05, 350 lb ai/a, with SANDEA 0.25 lb ai/a): 2.750
- TOMATO VIGOR 1-5SCALE ([4]; 25/Aug/05, 350 lb ai/a, with SANDEA 0.25 lb ai/a, listed as METHYL BROMIDE 2): 2.500
- TOMATO VIGOR 1-5SCALE ([4]; 25/Aug/05, 350 lb ai/a, with V-10142 0.25 lb ai/a): 2.650
- TOMATO VIGOR 1-5SCALE ([4]; 25/Aug/05, 350 lb ai/a, with V-10142 0.25 lb ai/a, listed as METHYL BROMIDE 2): 2.500
- change in vigor scale rating over the term of the test ([4]; 350 lb ai/a, no additional herbicide): no change
